In EP1079840B1, “SYNERGISTIC COMPOSITION OF INULIN AND AN ANTI-CANCER DRUG FOR USE IN THE TREATMENT OF CANCER” (Tiense Suikerraffinaderij N.V. (Raffinerie Tirlemontoise …, priority 1998, dated 1999):

Test system: ascitic form of a transplantable mouse liver tumor (TLT)
Experiment: Survival (increase of life span) of mice bearing the intraperitoneally transplanted ascitic TLT tumor
Assay type: in vivo, NMRI male mice
Conditions: for therapeutic effect (character of chemotherapy potentiating effect): cytotoxic drug combined with dietary FOS or inulin
Description: Viable, neoplastic cells (10^6) from the ascitic form of a transplantable mouse liver tumor (TLT) (Taper, 1966 and Cappucino, 1966) were intraperitoneally transplanted into 12 per group young adult NMRI male mice weighing about 30 g, supplied by "Animalerie Facultaire", UCL, Brussels. Mice of the experimental groups were fed with a basal diet supplemented with 15 % FOS or inulin starting 7 days before tumor transplantation up to the end of the experiment. Control animals received the basal diet for experimental animals AO4 furnished by UAR, Villemoisson sur Orge, France, and water ad libitum.
A single, subtherapeutic dose of cytotoxic drugs was intraperitoneally injected 48 hours after intraperitoneal TLT tumor transplantation at following doses: endoxan 80 mg/kg; adriamycin 0.1 mg/kg; oncovin 0.5 mg/kg and 5-fluorouracil 40 mg/kg.
The criteria for the evaluation of results were the mortality rates expressed by mean survival time (MST) and the percentage of increase of life span (ILS) in experimental groups compared with the controls, calculated according to the NCI instructions (Geron et al., 1972). The results of each experiment were confirmed by another experiment performed at another time and were cumulatively calculated (as presented in Table 1). The results concerning the survival rates of mice bearing the ascitic form of a TLT tumor, observed in 2 separately performed experiments on each type of anti-cancer drug (12 mice per group), are cumulatively presented in Table 1 below.
In a further experiment, carried out in a similar manner as the previous experiment, the effects were examined of a composition according to the invention, containing a combination of the anti-metabolite anti-cancer drug methotrexate and inulin or FOS, in comparison with the effects of the single components. The effects were evaluated via the survival criteria of N.M.RI mice bearing ascitic TLT tumors, treated with a single i.p. dose of 20 mg/kg methotrexate (10 investigated mice in each group) and the results are presented in Table 2 below.

[1] = increase of life span vs own untreated control group, 15 % FOS or inulin in diet from 7 days before transplantation, single i.p. dose 48 hours after transplantation: endoxan 80 mg/kg, adriamycin 0.1 mg/kg, oncovin 0.5 mg/kg, 5-fluorouracil 40 mg/kg, 2 experiments cumulated

For `O=P1(N(CCCl)CCCl)NCCCO1` (stereo not drawn) [Endoxan, cyclophosphamide], the “therapeutic effect (character of chemotherapy potentiating effect)” value (“therapeutic effect” below) was “additive” and the “ILS (%)” value [1] was 0%.
With `O=c1[nH]cc(F)c(=O)[nH]1` [5-Fluorouracil, 5-fluorouracil] the “therapeutic effect” value was “synergistic” and the “ILS (%)” value [1] was 18.75%.
With `COc1cccc2c1C(=O)c1c(O)c3c(c(O)c1C2=O)C[C@@](O)(C(=O)CO)C[C@@H]3O[C@H]1C[C@H](N)[C@H](O)[C@H](C)O1` [Adriamycin, adriamycin] the “therapeutic effect” value was “additive” and the “ILS (%)” value [1] was 14.7%.
For `CN(Cc1cnc2nc(N)nc(N)c2n1)c1ccc(C(=O)N[C@@H](CCC(=O)O)C(=O)O)cc1` [methotrexate], the “ILS (%)” value (Table 2, methotrexate single i.p. dose of 20 mg/kg, dietary FOS or inulin, 10 mice in each group) was 2%.
`CC[C@]1(O)C[C@H]2CN(CCc3c([nH]c4ccccc34)[C@@](C(=O)OC)(c3cc4c(cc3OC)N(C=O)[C@H]3[C@@](O)(C(=O)OC)[C@H](OC(C)=O)[C@]5(CC)C=CCN6CC[C@]43[C@@H]65)C2)C1` [Oncovin, vincristine sulphate] was tested, and the “therapeutic effect” value was “additive” and the “ILS (%)” value [1] was 33.33%.
